Data on 20 compounds can be found in patent US20230192700A1, “PYRAZOLOPYRAZINES ACTING ON CANCERS VIA INHIBITION OF CDK12” (Bayer Aktiengesellschaft, priority 2020, published 2023).

A value given as a limit tells only on which side of the number the result lay.

The target of one assay is T1, CDK12/CyclinK (Homo sapiens, UniProt Q9NYV4).
T1 construct: His-CDK12 (aa Q696-S1082); made in house; host or cells: Hi-5 insect cells (baculovirus co-infection with CycK and yeast CAK1)
In words: CDK12/CycK high ATP kinase assay (TR-FRET). It is filed as biochemical. To be noted: 2 mM ATP (high ATP); median; read-out: CDK12/CyclinK, 2 mM ATP (high ATP), IC50 - [mol/l] (median). The procedure, abridged:
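Human His-tagged CDK12/CycK (about 0.75 nM) preincubated with compound 15 min, then reacted 60 min at 22 °C with 2 mM ATP and 1 µM biotinylated peptide in HEPES pH 7.5 buffer. Phospho-Ser62 c-Myc epitope detected by TR-FRET (665/620 nm ratio); data normalised to no-inhibitor and no-enzyme controls.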

A further assay has as its target T2, CDK12 (Homo sapiens, UniProt Q9NYV4).
T2 construct: endogenous in cells; host or cells: CAL-120 human breast cancer cells (DSMZ ACC 459)
Nature of the assay: CDK12 nuclear protein level: immunofluorescence/high content analysis in CAL-120 cells. It is filed as cell-based. To be noted: for DC50: CAL-120 cells, 24 h, nuclear CDK12 staining intensity, median, read-out: CDK12 degradation IF DC50 - [mol/l] (median); for (IC50 CDK12 high ATP) to (Degradation DC50 CDK12) ratio: ratio of IC50 CDK12 hATP (2 mM ATP) to DC50 CDK12 (IF, CAL-120). The procedure, abridged:
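Cells were exposed to compounds in dose-response for 24 h at 37 °C, then PFA-fixed, immunostained for CDK12 and counterstained with Hoechst before confocal imaging. Nuclear CDK12 intensity was normalized to DMSO and control. DC50 is the concentration giving 50% reduction of nuclear staining.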

T2 sequence (Q9NYV4 whole entry): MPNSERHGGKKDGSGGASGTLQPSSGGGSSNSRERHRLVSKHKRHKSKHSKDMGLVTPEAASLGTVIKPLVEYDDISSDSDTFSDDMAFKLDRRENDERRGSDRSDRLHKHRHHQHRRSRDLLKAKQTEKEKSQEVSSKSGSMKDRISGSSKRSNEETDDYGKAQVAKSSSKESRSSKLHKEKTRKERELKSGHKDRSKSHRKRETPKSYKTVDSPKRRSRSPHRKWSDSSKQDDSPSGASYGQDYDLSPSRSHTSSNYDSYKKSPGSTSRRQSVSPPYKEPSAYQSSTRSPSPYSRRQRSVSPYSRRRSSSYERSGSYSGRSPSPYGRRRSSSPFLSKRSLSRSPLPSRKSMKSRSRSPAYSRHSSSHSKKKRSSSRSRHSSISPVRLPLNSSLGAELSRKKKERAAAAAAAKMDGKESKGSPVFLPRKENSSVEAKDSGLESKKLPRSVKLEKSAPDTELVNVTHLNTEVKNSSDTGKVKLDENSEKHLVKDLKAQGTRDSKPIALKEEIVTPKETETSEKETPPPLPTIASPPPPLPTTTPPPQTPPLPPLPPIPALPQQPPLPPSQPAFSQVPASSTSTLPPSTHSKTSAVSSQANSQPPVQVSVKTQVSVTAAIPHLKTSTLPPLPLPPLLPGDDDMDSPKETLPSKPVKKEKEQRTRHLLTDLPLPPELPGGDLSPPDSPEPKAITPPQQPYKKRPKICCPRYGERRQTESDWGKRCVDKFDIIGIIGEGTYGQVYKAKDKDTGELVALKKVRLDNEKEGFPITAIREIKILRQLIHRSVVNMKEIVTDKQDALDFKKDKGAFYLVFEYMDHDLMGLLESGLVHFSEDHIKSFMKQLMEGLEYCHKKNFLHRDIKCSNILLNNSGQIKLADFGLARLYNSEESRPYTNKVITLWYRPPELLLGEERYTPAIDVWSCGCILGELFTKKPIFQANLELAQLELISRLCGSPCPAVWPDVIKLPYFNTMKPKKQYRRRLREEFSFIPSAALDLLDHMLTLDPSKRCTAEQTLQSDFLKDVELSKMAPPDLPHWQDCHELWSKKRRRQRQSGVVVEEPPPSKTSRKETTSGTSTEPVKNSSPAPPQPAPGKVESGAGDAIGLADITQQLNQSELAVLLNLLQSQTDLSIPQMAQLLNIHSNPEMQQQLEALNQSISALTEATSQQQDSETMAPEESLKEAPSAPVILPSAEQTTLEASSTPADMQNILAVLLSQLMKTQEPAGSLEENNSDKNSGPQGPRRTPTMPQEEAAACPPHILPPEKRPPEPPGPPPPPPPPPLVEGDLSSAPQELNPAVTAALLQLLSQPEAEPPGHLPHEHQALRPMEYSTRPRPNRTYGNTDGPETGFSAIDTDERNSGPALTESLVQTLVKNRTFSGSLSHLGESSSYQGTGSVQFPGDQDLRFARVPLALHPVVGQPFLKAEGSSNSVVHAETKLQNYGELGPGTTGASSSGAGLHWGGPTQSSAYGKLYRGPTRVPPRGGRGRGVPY
T2 sequence (O75909 whole entry partner): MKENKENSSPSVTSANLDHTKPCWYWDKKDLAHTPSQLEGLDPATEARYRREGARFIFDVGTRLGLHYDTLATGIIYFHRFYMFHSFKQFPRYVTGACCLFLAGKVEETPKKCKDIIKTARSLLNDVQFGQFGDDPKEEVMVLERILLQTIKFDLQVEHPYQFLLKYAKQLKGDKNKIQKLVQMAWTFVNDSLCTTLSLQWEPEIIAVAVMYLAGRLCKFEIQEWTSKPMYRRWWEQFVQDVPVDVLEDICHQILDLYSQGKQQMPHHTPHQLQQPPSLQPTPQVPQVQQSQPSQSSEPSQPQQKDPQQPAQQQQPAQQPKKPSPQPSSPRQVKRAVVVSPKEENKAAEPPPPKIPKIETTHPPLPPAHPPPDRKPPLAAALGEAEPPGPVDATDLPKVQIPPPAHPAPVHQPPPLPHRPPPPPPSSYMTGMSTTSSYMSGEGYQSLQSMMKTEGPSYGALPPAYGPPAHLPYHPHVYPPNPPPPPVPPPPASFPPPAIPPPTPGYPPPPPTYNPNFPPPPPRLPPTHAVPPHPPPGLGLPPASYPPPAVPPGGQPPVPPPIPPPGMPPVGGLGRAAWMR
T1 sequence (Q9NYV4 with tags, fused parts or gaps): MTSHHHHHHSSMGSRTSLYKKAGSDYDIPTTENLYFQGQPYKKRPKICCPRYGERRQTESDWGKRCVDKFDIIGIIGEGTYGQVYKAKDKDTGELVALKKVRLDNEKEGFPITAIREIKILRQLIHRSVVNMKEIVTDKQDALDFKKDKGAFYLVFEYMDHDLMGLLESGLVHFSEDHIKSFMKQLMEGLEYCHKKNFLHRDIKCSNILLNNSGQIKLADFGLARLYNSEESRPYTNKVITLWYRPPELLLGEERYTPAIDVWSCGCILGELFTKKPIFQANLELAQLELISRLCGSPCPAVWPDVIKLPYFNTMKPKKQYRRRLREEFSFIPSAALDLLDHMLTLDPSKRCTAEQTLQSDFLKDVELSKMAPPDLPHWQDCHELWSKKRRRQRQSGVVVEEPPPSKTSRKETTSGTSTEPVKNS
T1 sequence (O75909 with tags, fused parts or gaps partner limits assumed): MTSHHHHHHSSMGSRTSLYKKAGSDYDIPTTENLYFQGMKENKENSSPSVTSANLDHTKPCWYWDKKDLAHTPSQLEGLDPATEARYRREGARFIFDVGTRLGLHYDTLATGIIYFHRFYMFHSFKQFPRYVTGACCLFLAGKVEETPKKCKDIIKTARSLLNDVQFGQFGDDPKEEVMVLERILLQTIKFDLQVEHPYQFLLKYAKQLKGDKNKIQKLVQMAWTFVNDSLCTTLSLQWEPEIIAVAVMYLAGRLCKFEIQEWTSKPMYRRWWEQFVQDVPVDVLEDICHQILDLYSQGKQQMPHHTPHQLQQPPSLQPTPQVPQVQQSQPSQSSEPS

With `OC[C@H]1C[C@H](n2nc(NCc3nc4ccccc4[nH]3)c3ncc(C4CC4)nc32)C1` [Example 46, [trans-3-(3-{[(1H-benzimidazol-2-yl)methyl]amino}-6-cyclopropyl-1H-pyrazolo[3,4-b]pyrazin-1-yl)cyclobutyl]methanol], the IC50 at CDK12/CyclinK is above 20000 nM. Moreover, the DC50 at CDK12 turned out to be 13.8 nM.
`OC[C@H]1C[C@@H](n2nc(NCc3nc4ccccc4[nH]3)c3ncc(C4CC4)nc32)C1` [Example 47, [cis-3-(3-{[(1H-benzimidazol-2-yl)methyl]amino}-6-cyclopropyl-1H-pyrazolo[3,4-b]pyrazin-1-yl)cyclobutyl]methanol]: the IC50 at CDK12/CyclinK worked out at 12800 nM. Moreover, at CDK12, the DC50 turned out to be 22.8 nM.
As for `c1ccc2[nH]c(CNc3nn(C4CCC4)c4nc(C5CC5)cnc34)nc2c1` [Example 49, N-[(1H-benzimidazol-2-yl)methyl]-1-cyclobutyl-6-cyclopropyl-1H-pyrazolo[3,4-b]pyrazin-3-amine], the IC50 on CDK12/CyclinK was above 20000 nM. For the same compound, on CDK12, the DC50 stood at 29.2 nM and the “(IC50 CDK12 high ATP) to (Degradation DC50 CDK12) ratio” value was above 685.
For the compound `O[C@H]1CC[C@H](n2nc(NCc3nc4ccccc4[nH]3)c3ncc(C4CC4)nc32)CC1` [Example 50, trans-4-(3-{[(1H-benzimidazol-2-yl)methyl]amino}-6-cyclopropyl-1H-pyrazolo[3,4-b]pyrazin-1-yl)cyclohexan-1-ol], the IC50 at CDK12/CyclinK came out at 6170 nM. Further, the DC50 on CDK12 was determined as 3.15 nM.
For `O[C@H]1CC[C@@H](n2nc(NCc3nc4ccccc4[nH]3)c3ncc(C4CC4)nc32)CC1` [Example 51, cis-4-(3-{[(1H-benzimidazol-2-yl)methyl]amino}-6-cyclopropyl-1H-pyrazolo[3,4-b]pyrazin-1-yl)cyclohexan-1-ol], the IC50 on CDK12/CyclinK is above 20000 nM. For the same compound, at CDK12, the DC50 came to 10.7 nM.
For `CC1(C)CC(n2nc(NCc3nc4ccccc4[nH]3)c3ncc(C4CC4)nc32)CC(C)(C)O1` [Example 52, N-[(1H-benzimidazol-2-yl)methyl]-6-cyclopropyl-1-(2,2,6,6-tetramethyloxan-4-yl)-1H-pyrazolo[3,4-b]pyrazin-3-amine], the IC50 on CDK12/CyclinK was above 20000 nM. Further, the DC50 on CDK12 was determined as 49.3 nM.
On to `Fc1ccc2[nH]c(CNc3nn(C4CCOCC4)c4nc(C5CC5)cnc34)nc2c1` [Example 53, 6-cyclopropyl-N-[(5-fluoro-1H-benzimidazol-2-yl)methyl]-1-(oxan-4-yl)-1H-pyrazolo[3,4-b]pyrazin-3-amine], for which, on CDK12/CyclinK, the IC50 is above 10000 nM. Besides, the DC50 at CDK12 was 32 nM.
The like results for `c1ccc2[nH]c(CNc3nn(C4CC5(COC5)C4)c4nc(C5CC5)cnc34)nc2c1` [Example 54, N-[(1H-benzimidazol-2-yl)methyl]-6-cyclopropyl-1-(2-oxaspiro[3.3]heptan-6-yl)-1H-pyrazolo[3,4-b]pyrazin-3-amine] were, in that order, 11100 nM and 13.1 nM.
Regarding `c1ccc2[nH]c(CNc3nn(C4COC4)c4nc(C5CC5)cnc34)nc2c1` [Example 55, N-[(1H-benzimidazol-2-yl)methyl]-6-cyclopropyl-1-(oxetan-3-yl)-1H-pyrazolo[3,4-b]pyrazin-3-amine], at CDK12/CyclinK, the IC50 is above 20000 nM. The DC50 at CDK12 was found to be 46.9 nM.
With `O[C@H]1CC[C@H](n2nc(NCc3nc4cc(F)ccc4[nH]3)c3ncc(C4CC4)nc32)CC1` [Example 56, trans-4-(6-cyclopropyl-3-{[(5-fluoro-1H-benzimidazol-2-yl)methyl]amino}-1H-pyrazolo[3,4-b]pyrazin-1-yl)cyclohexan-1-ol], the IC50 on CDK12/CyclinK was above 18100 nM. Besides, at CDK12, the DC50 stood at 7.11 nM.
For `OCCCn1nc(NCc2nc3ccccc3[nH]2)c2ncc(C3CC3)nc21` [Example 60, 3-(3-{[(1H-benzimidazol-2-yl)methyl]amino}-6-cyclopropyl-1H-pyrazolo[3,4-b]pyrazin-1-yl)propan-1-ol], the IC50 at CDK12/CyclinK is above 20000 nM. On CDK12, the DC50 was 41.2 nM and the “(IC50 CDK12 high ATP) to (Degradation DC50 CDK12) ratio” value is recorded as above 102.
The like results for `COCCCn1nc(NCc2nc3ccccc3[nH]2)c2ncc(C3CC3)nc21` [Example 61, N-[(1H-benzimidazol-2-yl)methyl]-6-cyclopropyl-1-(3-methoxypropyl)-1H-pyrazolo[3,4-b]pyrazin-3-amine] were, in that order, above 20000 nM, 163 nM and above 123.
For the compound `COCCn1nc(NCc2nc3ccccc3[nH]2)c2ncc(C3CC3)nc21` [Example 65, N-[(1H-benzimidazol-2-yl)methyl]-6-cyclopropyl-1-(2-methoxyethyl)-1H-pyrazolo[3,4-b]pyrazin-3-amine], the IC50 on CDK12/CyclinK was above 20000 nM. Further, the DC50 at CDK12 turned out to be 20.5 nM.
As for `OCCn1nc(NCc2nc3ccccc3[nH]2)c2ncc(C3CC3)nc21` [Example 66, 2-(3-{[(1H-benzimidazol-2-yl)methyl]amino}-6-cyclopropyl-1H-pyrazolo[3,4-b]pyrazin-1-yl)ethan-1-ol], the IC50 on CDK12/CyclinK is above 20000 nM. In addition, at CDK12, the DC50 stood at 19.4 nM and the “(IC50 CDK12 high ATP) to (Degradation DC50 CDK12) ratio” value is given as above 1116.
Take `COC(C)(C)CCn1nc(NCc2nc3ccccc3[nH]2)c2ncc(C3CC3)nc21` [Example 67, N-[(1H-benzimidazol-2-yl)methyl]-6-cyclopropyl-1-(3-methoxy-3-methylbutyl)-1H-pyrazolo[3,4-b]pyrazin-3-amine]: at CDK12/CyclinK, the IC50 is above 20000 nM. For the same compound, at CDK12, the DC50 was 21 nM and the “(IC50 CDK12 high ATP) to (Degradation DC50 CDK12) ratio” value is recorded as above 937.
For `CN(C)CCn1nc(NCc2nc3ccccc3[nH]2)c2ncc(C3CC3)nc21` [Example 68, N-[(1H-benzimidazol-2-yl)methyl]-6-cyclopropyl-1-[2-(dimethylamino)ethyl]-1H-pyrazolo[3,4-b]pyrazin-3-amine], the IC50 at CDK12/CyclinK is above 20000 nM. Moreover, on CDK12, the DC50 amounted to 29.1 nM and the “(IC50 CDK12 high ATP) to (Degradation DC50 CDK12) ratio” value is recorded as above 687.
On to `CC(C)(O)Cn1nc(NCc2nc3ccccc3[nH]2)c2ncc(C3CC3)nc21` [Example 69, 1-(3-{[(1H-benzimidazol-2-yl)methyl]amino}-6-cyclopropyl-1H-pyrazolo[3,4-b]pyrazin-1-yl)-2-methylpropan-2-ol], for which the IC50 at CDK12/CyclinK was above 10000 nM. For the same compound, at CDK12, the DC50 was 99.4 nM and the “(IC50 CDK12 high ATP) to (Degradation DC50 CDK12) ratio” value is on record as above 101.
Regarding `O[C@H]1C[C@H](Cn2nc(NCc3nc4ccccc4[nH]3)c3ncc(C4CC4)nc32)C1` [Example 70, trans-3-[(3-{[(1H-benzimidazol-2-yl)methyl]amino}-6-cyclopropyl-1H-pyrazolo[3,4-b]pyrazin-1-yl)methyl]cyclobutan-1-ol], the IC50 on CDK12/CyclinK is above 20000 nM. Besides, the DC50 on CDK12 was 10.8 nM.
On to `O[C@H]1C[C@@H](Cn2nc(NCc3nc4ccccc4[nH]3)c3ncc(C4CC4)nc32)C1` [Example 71, cis-3-[(3-{[(1H-benzimidazol-2-yl)methyl]amino}-6-cyclopropyl-1H-pyrazolo[3,4-b]pyrazin-1-yl)methyl]cyclobutan-1-ol], for which the IC50 at CDK12/CyclinK is above 20000 nM. Also, on CDK12, the DC50 was determined as 27.7 nM.
In the case of `OC1(Cn2nc(NCc3nc4ccccc4[nH]3)c3ncc(C4CC4)nc32)CCC1` [Example 72, 1-[(3-{[(1H-benzimidazol-2-yl)methyl]amino}-6-cyclopropyl-1H-pyrazolo[3,4-b]pyrazin-1-yl)methyl]cyclobutan-1-ol], the IC50 at CDK12/CyclinK is above 10000 nM. Further, at CDK12, the DC50 worked out at 18.7 nM and the “(IC50 CDK12 high ATP) to (Degradation DC50 CDK12) ratio” value is reported as above 536.
